From US10953100B2, “Compounds and therapeutic uses thereof” (priority 2015, dated 2021)

Molecular target: Anti-alpha galactosyl IgG antibody
Test: ELISA assay: streptavidin-captured biotin compound, binding of anti-alpha galactosyl IgG antibody
Design: species or system human
Conditions: geometric mean with standard error in brackets; streptavidin plate, anti-alpha galactosyl IgG 0.5 μg/mL; read-out: Concentration at half maximal binding
Protocol: Compounds containing F (representing a carbohydrate molecule capable of binding to a human anti-alpha-galactosyl antibody) and L (as biotin) were assayed for binding at both ends of the compound using an enzyme-linked immunosorbent assay (ELISA). Streptavidin-coated plates captured biotin to the surface of the plate and the binding of anti-alpha galactosyl antibodies to the alpha-galactosyl moiety was reported by a secondary antibody labelled with HRP (Horse Radish Peroxidase).
Compounds were titrated 1.5 fold from a top dose of 50 nM in phosphate buffered saline (PBS) (Sigma D8537)+0.025% DMSO (Dimethyl Sulphoxide, Sigma D8418). Streptavidin immobilizer 96-well plates (nunc 436014) were coated with 100 μL of compound at room temperature for 2 hours shaking at 500 rpm. Plates were washed with 2×200 μL PBS-T (PBS with 0.05% Tween 20 (Sigma P9416)) and 1×200 μL PBS-T with a 5 minute incubation shaking at room temperature, prior to being blocked for 1 hour at room temperature with 1% Bovine Serum Albumin (BSA, Sigma A2153) in PBS-T. After removing the blocking buffer, 50 μL of Anti-alpha galactosyl IgG antibody (Anti-alpha-galactosyl antibody was purified from human IVIG (Gammagard) by affinity purification using an alpha-galactosyl-HSA (Human Serum Albumin) sepharose column by Rockland Immunochemicals Inc.) at 0.5 μg/mL in PBS-T+1% BSA and incubated shaking at room temperature for 1 hour.
Plates were washed 2×200 μL PBS-T and 3×200 μL PBS-T with a 5 minute incubation, shaking at room temperature before the addition of 50 μL 1:5000 Goat Anti-Human IgG-HRP (horseradish peroxidase) conjugate (Abcam ab97175). The plates were incubated shaking at room temperature for 1 hour before a final wash of 2×200 μL PBS-T and 3×200 μl PBS-T with a 5 minute incubation shaking at room temperature. 100 μL TMB buffer (3,3′,5,5′-tetramethylbenzidine, a chromogenic substrate for horseradish peroxidase) (Pierce 34021) was added to the plate and allowed to develop for 5-10 minutes before the samples were quenched with 50 μL 2M sulfuric acid (Sigma 258105). The absorbance was read at 450 nm on an Envision plate reader (Perkin Elmer). Results from wells (duplicate) were averaged and the 50% binding affinity calculated.
The concentration at which half-maximal binding is achieved is reported as a geometric mean with standard error in brackets. The number of independent experiments is also reported. In order to achieve a signal both ends of the molecule are required to bind (biotin to streptavidin and alpha-galactosyl to anti-alpha galactosyl antibodies) simultaneously.

Structure (SMILES) | EC50 [nM]
CC(=O)N[C@H]1[C@H](OCCCNC(=O)COc2cc(-c3cccc(C(=O)NCCNC(=O)CCCC[C@@H]4SC[C@@H]5NC(=O)N[C@@H]54)c3)cc(OCC(=O)NCCCO[C@@H]3O[C@H](CO)[C@@H](O[C@@H]4O[C@H](CO)[C@H](O)[C@H](O[C@H]5O[C@H](CO)[C@H](O)[C@H](O)[C@H]5O)[C@H]4O)[C@H](O)[C@H]3NC(C)=O)c2OCC(=O)NCCCO[C@@H]2O[C@H](CO)[C@@H](O[C@@H]3O[C@H](CO)[C@H](O)[C@H](O[C@H]4O[C@H](CO)[C@H](O)[C@H](O)[C@H]4O)[C@H]3O)[C@H](O)[C@H]2NC(C)=O)O[C@H](CO)[C@@H](O[C@@H]2O[C@H](CO)[C@H](O)[C@H](O[C@H]3O[C@H](CO)[C@H](O)[C@H](O)[C@H]3O)[C@H]2O)[C@@H]1O [Example 55] | 27.4
CC(=O)N[C@H]1[C@H](OCCCNC(=O)COc2cc(C(=O)NCCNC(=O)CCCC[C@@H]3SC[C@@H]4NC(=O)N[C@@H]43)nc3ccccc23)O[C@H](CO)[C@@H](O[C@@H]2O[C@H](CO)[C@H](O)[C@H](O[C@H]3O[C@H](CO)[C@H](O)[C@H](O)[C@H]3O)[C@H]2O)[C@@H]1O [Example 10, 4-(2-((3-(((2R,3R,4R,5S,6R)-3-Acetamido-5-(((2S,3R,4S,5S,6R)-3,5-dihydroxy-6-(hydroxymethyl)-4-(((2R,3R,4S,5R,6R)-3,4,5-trihydroxy-6-(hydroxymethyl)tetrahydro-2H-pyran-2-yl)oxy)tetrahydro-2H-pyran-2-yl)oxy)-4-hydroxy-6-(hydroxymethyl)tetrahydro-2H-pyran-2-yl)oxy)propyl)amino)-2-oxoethoxy)-N-(2-(5-((3aS,4S,6aR)-2-oxohexahydro-1H-thieno[3,4-d]imidazol-4-yl)pentanamido)ethyl)quinoline-2-carboxamide] | 25.7
CC(=O)N[C@H]1[C@H](OCCCNC(=O)COc2cc(OCC(=O)NCCCO[C@@H]3O[C@H](CO)[C@@H](O[C@@H]4O[C@H](CO)[C@H](O)[C@H](O[C@H]5O[C@H](CO)[C@H](O)[C@H](O)[C@H]5O)[C@H]4O)[C@H](O)[C@H]3NC(C)=O)cc(C(=O)NCCNC(=O)CCCC[C@@H]3SC[C@@H]4NC(=O)N[C@@H]43)c2)O[C@H](CO)[C@@H](O[C@@H]2O[C@H](CO)[C@H](O)[C@H](O[C@H]3O[C@H](CO)[C@H](O)[C@H](O)[C@H]3O)[C@H]2O)[C@@H]1O [Example 5] | 9.1
CC(=O)N[C@H]1[C@H](OCCCNC(=O)COc2cccc(C(=O)NCCNC(=O)CCCC[C@@H]3SC[C@@H]4NC(=O)N[C@@H]43)c2)O[C@H](CO)[C@@H](O[C@@H]2O[C@H](CO)[C@H](O)[C@H](O[C@H]3O[C@H](CO)[C@H](O)[C@H](O)[C@H]3O)[C@H]2O)[C@@H]1O [Example 2, 3-(2-((3-(((2R,3R,4R,5S,6R)-3-Acetamido-5-(((2S,3R,4S,5S,6R)-3,5-dihydroxy-6-(hydroxymethyl)-4-(((2R,3R,4S,5R,6R)-3,4,5-trihydroxy-6-(hydroxymethyl)tetrahydro-2H-pyran-2-yl)oxy)tetrahydro-2H-pyran-2-yl)oxy)-4-hydroxy-6-(hydroxymethyl)tetrahydro-2H-pyran-2-yl)oxy)propyl)amino)-2-oxoethoxy)-N-(2-(5-((3aS,4S,6aR)-2-oxohexahydro-1H-thieno[3,4-d]imidazol-4-yl)pentanamido)ethyl)benzamide] | 21.2
CC(=O)N[C@H]1[C@H](OCCCNC(=O)COc2cc(OCC(=O)NCCCO[C@@H]3O[C@H](CO)[C@@H](O[C@@H]4O[C@H](CO)[C@H](O)[C@H](O[C@H]5O[C@H](CO)[C@H](O)[C@H](O)[C@H]5O)[C@H]4O)[C@H](O)[C@H]3NC(C)=O)cc(-c3cc(OCC(=O)NCCCO[C@@H]4O[C@H](CO)[C@@H](O[C@@H]5O[C@H](CO)[C@H](O)[C@H](O[C@H]6O[C@H](CO)[C@H](O)[C@H](O)[C@H]6O)[C@H]5O)[C@H](O)[C@H]4NC(C)=O)cc(C(=O)NCCNC(=O)CCCC[C@@H]4SC[C@@H]5NC(=O)N[C@@H]54)c3)c2)O[C@H](CO)[C@@H](O[C@@H]2O[C@H](CO)[C@H](O)[C@H](O[C@H]3O[C@H](CO)[C@H](O)[C@H](O)[C@H]3O)[C@H]2O)[C@@H]1O [Example 1] | 8.2

The next lines start with the values.

EC50 [nM] | Structure (SMILES)
14.8 | CC(=O)NC1C(OCCCNC(=O)CCOCCOCCOCCOCCNC(=O)COc2ccc(-c3cc(OCC(=O)NCCOCCOCCOCCOCCC(=O)NCCCOC4OC(CO)C(OC5OC(CO)C(O)C(OC6OC(CO)C(O)C(O)C6O)C5O)C(O)C4NC(C)=O)cc(C(=O)NCCNC(=O)CCCCC4SCC5NC(=O)NC54)c3)cc2)OC(CO)C(OC2OC(CO)C(O)C(OC3OC(CO)C(O)C(O)C3O)C2O)C1O (stereo not shown) [Example 20]
14.8 | CC(=O)NC1C(OCCCNC(=O)CCOCCOCCOCCOCCNC(=O)COc2cc(OCC(=O)NCCOCCOCCOCCOCCC(=O)NCCCOC3OC(CO)C(OC4OC(CO)C(O)C(OC5OC(CO)C(O)C(O)C5O)C4O)C(O)C3NC(C)=O)cc(C(=O)NCCNC(=O)CCOCCOCCOCCOCCOCCOCCOCCOCCOCCOCCOCCOCCNC(=O)CCCCC3SCC4NC(=O)NC43)c2)OC(CO)C(OC2OC(CO)C(O)C(OC3OC(CO)C(O)C(O)C3O)C2O)C1O (stereo not shown) [Example 21]
16.3 | CC(=O)NC1C(OCCCNC(=O)CCOCCOCCOCCOCCOCCOCCOCCOCCOCCOCCOCCOCCNC(=O)COc2cc(OCC(=O)NCCOCCOCCOCCOCCOCCOCCOCCOCCOCCOCCOCCOCCC(=O)NCCCOC3OC(CO)C(OC4OC(CO)C(O)C(OC5OC(CO)C(O)C(O)C5O)C4O)C(O)C3NC(C)=O)cc(-c3cc(OCC(=O)NCCOCCOCCOCCOCCOCCOCCOCCOCCOCCOCCOCCOCCC(=O)NCCCOC4OC(CO)C(OC5OC(CO)C(O)C(OC6OC(CO)C(O)C(O)C6O)C5O)C(O)C4NC(C)=O)cc(C(=O)NCCNC(=O)CCCCC4SCC5NC(=O)NC54)c3)c2)OC(CO)C(OC2OC(CO)C(O)C(OC3OC(CO)C(O)C(O)C3O)C2O)C1O (stereo not shown) [Example 56]
24.1 | CC(=O)NC1C(O)[C@H](O[C@@H]2OC(CO)[C@H](O)C(O[C@H]3OC(CO)[C@H](O)C(O)C3O)C2O)C(CO)O[C@H]1OCCCNC(=O)CCCNC(=O)COc1cc(OCC(=O)NCCCC(=O)NCCCO[C@@H]2OC(CO)[C@@H](O[C@@H]3OC(CO)[C@H](O)C(O[C@H]4OC(CO)[C@H](O)C(O)C4O)C3O)C(O)C2NC(C)=O)cc(-c2cc(OCC(=O)NCCCC(=O)NCCCO[C@@H]3OC(CO)[C@@H](O[C@@H]4OC(CO)[C@H](O)C(O[C@H]5OC(CO)[C@H](O)C(O)C5O)C4O)C(O)C3NC(C)=O)cc(C(=O)NCCNC(=O)CCCC[C@@H]3SC[C@@H]4NC(=O)N[C@@H]43)c2)c1 (stereo partly shown) [Example 60]
20.7 | CC(=O)N[C@H]1[C@H](OCCCNC(=O)COc2cc(OCC(=O)NCCCO[C@@H]3O[C@H](CO)[C@@H](O[C@@H]4O[C@H](CO)[C@H](O)[C@H](O[C@H]5O[C@H](CO)[C@H](O)[C@H](O)[C@H]5O)[C@H]4O)[C@H](O)[C@H]3NC(C)=O)cc(-c3cc(C(=O)NCCNC(=O)CCCC[C@@H]4SC[C@@H]5NC(=O)N[C@@H]54)cc(-c4cc(OCC(=O)NCCCO[C@@H]5O[C@H](CO)[C@@H](O[C@@H]6O[C@H](CO)[C@H](O)[C@H](O[C@H]7O[C@H](CO)[C@H](O)[C@H](O)[C@H]7O)[C@H]6O)[C@H](O)[C@H]5NC(C)=O)cc(OCC(=O)NCCCO[C@@H]5O[C@H](CO)[C@@H](O[C@@H]6O[C@H](CO)[C@H](O)[C@H](O[C@H]7O[C@H](CO)[C@H](O)[C@H](O)[C@H]7O)[C@H]6O)[C@H](O)[C@H]5NC(C)=O)c4)c3)c2)O[C@H](CO)[C@@H](O[C@@H]2O[C@H](CO)[C@H](O)[C@H](O[C@H]3O[C@H](CO)[C@H](O)[C@H](O)[C@H]3O)[C@H]2O)[C@@H]1O [Example 62]
